{
  "source": "patent US7947302B2",
  "about": "“Antithrombotic coating for drug eluting medical devices” (Cordis Corporation, priority 2005, dated 2011)",
  "key": {"[1]": {"test_system": "human coronary artery smooth muscle cell", "assay": "MTS cytotoxicity assay (FIG. 69)", "type": "cell-based", "settings": "concentrations up to 30,000.00 nanomolar (6.6 to 30,000.00 nanomolar tested)", "text": "Typically, a control is utilized to determine baseline toxicity."}, "[2]": {"test_system": "human coronary artery smooth muscle cells", "assay": "Anti-proliferative activity in synchronized cultured cells, two percent fetal bovine serum (FIG. 64-68)", "type": "cell-based", "text": "(§1) The multiple curves represent various concentrations of topotecan ranging from zero to three hundred nanomolar concentrations.\n(§2) The multiple curves represent various concentrations of etoposide ranging from zero to eight hundred nanomolar concentrations.\nReferring to FIG. 66, there is illustrated, in graphical format, the anti-proliferative activity of Panzem® in synchronized cultured human coronary artery smooth muscle cells stimulated with two percent fetal bovine serum.\nThe multiple curves represent various concentrations of Panzem® ranging from zero to 100 micromolar concentrations."}, "[3]": {"assay": "In vivo release kinetics from rapamycin/cladribine EVA/BMA basecoat, porcine pharmacokinetics studies (FIG. 62, 63)", "parameters": "species or system Yorkshire pigs", "settings": "comparison of FIG. 63 with FIG. 62", "text": "The basecoat is applied to Bx Velocity® stents and implanted into Yorkshire pigs.\nThe basecoat is applied to BxVelocity® stents and implanted into Yorkshire pigs."}, "[4]": {"test_system": "human coronary artery smooth muscle cells", "assay": "Anti-proliferative activity in non-synchronized cultured cells, two percent fetal bovine serum (FIG. 57, 58)", "type": "cell-based", "text": "FIG. 58 illustrates, in graphical format, the anti-proliferative activity of cladribine in non-synchronized cultured human coronary artery smooth muscle cells stimulated with two percent fetal bovine serum.\nThe multiple curves represent various concentrations of cladribine ranging from zero to nine hundred nanomolar concentrations."}, "[5]": {"assay": "In vivo release kinetics of cladribine from PVDF/HFP coating on Bx Velocity stents (FIG. 61)", "parameters": "species or system Yorkshire pig", "settings": "1800 micrograms basecoat, thirty percent cladribine, 300 micrograms topcoat", "text": "FIG. 61 is a graphical representation of the in vivo release kinetics of cladribine from a polymeric coating on BxVelocity® stents, available from Cordis Corporation, implanted in a Yorkshire pig. The basecoat comprises an 85/15 ratio of PVDF and HFP and cladribine for a total combined weight of one thousand eight hundred micrograms (cladribine comprising thirty percent of the total weight). The topcoat comprises an 85/15 ratio of PVDF/HFP and no cladribine. The total weight of the topcoat is three hundred micrograms."}, "cell viability": {"test_system": "cell viability", "assay": "Cell viability assay", "type": "cell-based", "text": "as §1, §2"}, "[6]": {"assay": "In vivo release kinetics from rapamycin/mycophenolic acid EVA/BMA basecoat, porcine pharmacokinetics studies (FIG. 53, 54)", "settings": "180 micrograms rapamycin, 180 micrograms mycophenolic acid, 240 micrograms EVA/BMA; none, 100 or 200 micrograms BMA topcoat"}, "[7]": {"test_system": "human coronary artery smooth muscle cells", "assay": "Anti-proliferative activity of rapamycin with mycophenolic acid, non-synchronized cells, two percent fetal bovine serum (FIG. 52)", "type": "cell-based", "settings": "mycophenolic acid zero to one thousand nanomolar; leftward and upward shift", "text": "The multiple curves represent various concentrations of mycophenolic acid ranging from zero to one thousand nanomolar concentrations. […] This potentiation observed in cultured coronary artery smooth muscle cells preferably translates to an enhancement in anti-restenotic efficacy following vascular injury and a reduction in the required amount of either agent to achieve the desired anti-restenotic effect."}, "[8]": {"assay": "In vivo release kinetics from rapamycin/mycophenolic acid PVDF basecoat with PVDF topcoat, porcine pharmacokinetics studies (FIG. 56)", "settings": "600 micrograms basecoat, 200 micrograms topcoat", "text": "The topcoat is two hundred micro grams."}, "[9]": {"assay": "Liquid formulations with PEG 200, ethanol and water; concentrations by liquid chromatography", "type": "physicochemical", "settings": "liquid formulation comprising 4 mg/ml of sirolimus", "text": "In accordance with exemplary embodiments of the present invention, a series of liquid formulations were developed for the local or regional delivery of water insoluble compounds such as sirolimus and its analogs, including CCl-779, ABT-578 and everolimus, through weeping balloons and catheter injection needles. […] These liquid formulations increase the apparent solubility of the pharmacologically active but water insoluble compounds by two to four orders of magnitude as compared to the solubility limits of the compounds in water. These liquid formulations rely on the use of a very small amount of organic solvents such as Ethanol (typically less than two percent) and a larger amount of safe amphiphilic (of or relating to a molecule having a polar, water soluble group attached to a non-polar, water insoluble […]) excipients such as polyethylene glycol (PEG 200, PEG 400) and vitamin E TPGS to enhance the solubility of the compounds. These liquid formulations of highly water insoluble compounds are stable and readily flowable at room temperature. Certain excipients, such as Vitamin E TPGS and BHT may be utilized to enhance the storage stability of sirolimus compounds through their anti-oxidation properties. […]"}, "[10]": {"test_system": "human coronary artery smooth muscle cell", "assay": "In vitro cell culture study of coronary artery smooth muscle cell proliferation (trichostatin A)", "type": "cell-based", "text": "FIG. 51 is a graph of the inhibition of coronary artery smooth muscle cells by trichostatin A in a cell culture study."}, "tumor cell lines": {"test_system": "tumor cell lines", "settings": "cited from earlier work"}},
  "data": [
    {"smiles": "COc1cc2c(cc1O)CC[C@@H]1[C@@H]2CC[C@]2(C)[C@@H](O)CC[C@@H]12", "note": "[Panzem®, 2-methoxyestradiol]", "values": [
      {"measurement": "MTS assay: cell survival", "setting": "[1]", "result": "do not reduce human coronary artery smooth muscle cell survival"},
      {"measurement": "effect of addition to cells treated with rapamycin", "setting": "[2]; Panzem 0.813 to 100 micromolar", "result": "increases the percent of inhibition of rapamycin alone"},
      {"measurement": "anti-proliferative activity (FIG. 66, 67)", "setting": "[2]; in vitro, agent alone", "result": "extremely effective inhibitor"}
    ]},
    {"smiles": "Nc1nc(Cl)nc2c1ncn2[C@H]1C[C@H](O)[C@@H](CO)O1", "note": "[cladribine, 2-chlorodeoxyadenosine]", "values": [
      {"measurement": "in vivo elution from EVA/BMA basecoat with BMA topcoat relative to rapamycin", "setting": "[3]", "result": "elutes more rapidly than rapamycin"},
      {"measurement": "effect of addition to cells treated with rapamycin", "setting": "[4]; cladribine 56.25 to 900 nanomolar", "result": "increases the percent inhibition of rapamycin alone"},
      {"measurement": "inhibition of human coronary artery smooth muscle cell proliferation", "setting": "[4]; non-synchronized cells, two percent fetal bovine serum", "result": "completely inhibits"},
      {"measurement": "in vivo elution from PVDF/HFP (85/15) coating", "setting": "[5]", "result": "levels off significantly"}
    ]},
    {"smiles": "COc1cc([C@@H]2c3cc4c(cc3[C@@H](O[C@@H]3O[C@@H]5CO[C@@H](C)O[C@H]5[C@H](O)[C@H]3O)[C@H]3COC(=O)[C@H]23)OCO4)cc(OC)c1O", "note": "[etoposide]", "values": [
      {"measurement": "cytotoxicity in a cell viability assay", "setting": "cell viability; concentrations up to ten micromolar", "result": "non-cytotoxic"},
      {"measurement": "effect of addition to cells treated with rapamycin", "setting": "[2]; etoposide 255.7 to eight-hundred nanomolar", "result": "increases the percent inhibition of rapamycin alone"}
    ]},
    {"smiles": "COc1c(C)c2c(c(O)c1C/C=C(\\C)CCC(=O)O)C(=O)OC2", "note": "[mycophenolic acid]", "values": [
      {"measurement": "in vivo elution from EVA/BMA basecoat relative to co-loaded drug", "setting": "[6]", "result": "elutes more completely over a shorter duration than the rapamycin"},
      {"measurement": "effect of addition on the anti-proliferative rapamycin dose response curve", "setting": "[7]", "result": "potentiates the anti-proliferative activity of rapamycin"}
    ]},
    {"smiles": "CO[C@H]1C[C@@H]2CC[C@@H](C)[C@@](O)(O2)C(=O)C(=O)N2CCCC[C@H]2C(=O)O[C@H]([C@H](C)C[C@@H]2CC[C@@H](O)[C@H](OC)C2)CC(=O)[C@H](C)/C=C(\\C)[C@@H](O)[C@@H](OC)C(=O)[C@H](C)C[C@H](C)/C=C/C=C/C=C/1C", "note": "[rapamycin]", "values": [
      {"measurement": "in vivo release rate from PVDF basecoat with PVDF topcoat relative to co-loaded drug", "setting": "[8]", "result": "slower release rate than that of mycophenolic acid"},
      {"measurement": "concentration of sirolimus relative to the solubility of sirolimus in water", "setting": "[9]", "result": "four hundred to about one thousand"}
    ]},
    {"smiles": "CC[C@@]1(O)C(=O)OCc2c1cc1n(c2=O)Cc2cc3c(CN(C)C)c(O)ccc3nc2-1", "note": "[topotecan]", "values": [
      {"measurement": "cytotoxicity in a separate cell viability assay", "setting": "cell viability; concentrations up to one micromolar", "result": "non-cytotoxic"},
      {"measurement": "effect of addition to cells treated with rapamycin", "setting": "[2]; topotecan 18.8 to 300 nanomolar", "result": "increases the percent inhibition of rapamycin alone"}
    ]},
    {"smiles": "CC(/C=C/C(=O)NO)=C\\[C@@H](C)C(=O)c1ccc(N(C)C)cc1", "note": "[trichostatin A]", "values": [
      {"measurement": "inhibition of human coronary artery smooth muscle cell proliferation", "setting": "[10]", "result": "completely inhibit"},
      {"measurement": "IC50", "setting": "[10]; read-out: anti-proliferative IC50", "result": "~6", "unit": "nM"},
      {"measurement": "anti-proliferative IC50's", "setting": "tumor cell lines", "result": "low nM range"}
    ]}
  ]
}
